# In US9521846B2, “Template-fixed peptidomimetics with antimicrobial activity” (priority 2006, dated 2016):
# Non-standard residues stand in square brackets, D forms with d. Residues, ends and D or L forms follow the SMILES beside them. Cha = N[C@@H](CC1CCCCC1)C(=O)O; Chg = N[C@H](C(=O)O)C1CCCCC1; Nle = CCCC[C@H](N)C(=O)O; Dab = NCC[C@H](N)C(=O)O
# Assays:
# HELA cells (Acc57) = test: Cytotoxicity assay, MTT reduction (LC 50, GI 50); format: cell-based
# Experimental: The cytotoxicity of the peptides to HELA cells (Acc57) and COS-7 cells (CRL-1651) was determined using the MIT reduction assay [see ref. 2 and 3, below]. Briefly the method was as follows: HELA cells and COS-7 cells were seeded at 7.0×10^3 and, respectively, 4.5×10^3 cells per well and grown in 96-well […] plates for 24 hours at 37° C. at 5% CO2. At this point, time zero (Tz) was determined by MTT reduction (see below). The supernatant of the remaining wells was discarded, and fresh medium and the peptides in serial dilutions of 12.5, 25 and 50 μM were dispensed into the wells. Each peptide concentration was assayed in triplicate. Incubation of the cells was continued for 48 hours at 37° C. at 5% CO2. Wells were then washed once with phosphate buffered saline (PBS) and subsequently 100 μl MIT reagent (0.5 mg/ml in medium RPMI1640 and, respectively, DMEM) were added to the wells. This was incubated at 37° C. for 2 hours and subsequently the medium was aspirated and 100 μl isopropanol were added to each well. The absorbance at 595 nm of the solubilized product was measured (OD595peptide). For each concentration averages were calculated from triplicates. The percentage of growth was calculated as follows: (OD595peptide-OD595Tz-OD595Empty well)/(OD595Tz-OD595Empty well)×100% and was plotted for each peptide concentration.
# The LC 50 values (Lethal Concentration, defined as the concentration that kills 50% of the cells) were determined for each peptide by using the trend line function of EXCEL (Microsoft Office 2000) for the concentrations (50, 25, 12.5 and 0 μM), the corresponding growth percentages and the value −50, (=TREND(C50:C0,%50:%0,−50)). The GI 50 (Growth Inhibition) concentrations were calculated for each peptide by using a trend line function for the concentrations (50, 25, 12.5 and 0 […]), the corresponding percentages and the value 50, (=TREND (C50:C0,%50:%0,50).
# [1] = tested on: human red blood cells (hRBC); test: Hemolysis; format: cell-based; settings: 100
# Experimental: Hemolysis of red blood cells is often employed for assessment of toxicity of related compounds such as protegrin or tachyplesin. Values are given as %-lysis of red blood cells observed at a concentration of 100 μg/ml. Typical values determined for cationic peptides such as protegrin and tachyplesin range between 30-40% with average MIC-values of 1-5 μg/ml over a wide range of pathogens.
# The peptides were tested for their hemolytic activity against human red blood cells (hRBC). Fresh hRBC were washed three times with phosphate buffered saline (PBS) by centrifugation for 10 min at 2000×g. Peptides at a concentration of 100 μM were incubated with 20% v/v hRBC for 1 hour at 37° C. The final erythrocyte concentration was approximately 0.9×10^9 cells per ml. A value of 0% and, respectively, 100% cell lysis was determined by incubation of the hRBC in the presence of PBS alone and, respectively, 0.1% Triton X-100 in H2O. The samples were centrifuged, the supernatant was 20-fold diluted in PBS buffer and the optical density (OD) of the sample at […] was measured. The 100% lysis value (OD540H20) gave an OD540 of approximately 1.3-1.8. Percent hemolysis was calculated as follows: (OD540peptide/OD540H20)×100%.
# [2] = tested on: Pseudomonas aeruginosa P1021913; format: cell-based; settings: P1021913
# Experimental: (§1) The selective antimicrobial activities of the peptides were determined in 96-well plates (Nunclon polystyrene) by the standard NCCLS broth microdilution method (see ref 1, below) with slight modifications. Innocula of the microorganisms were diluted into Mueller-Hinton (MH) broth+0.02% BSA and compared with a 0.5 Mcfarland standard to give appr. 10^6 colony forming units (CFU)/ml. Aliquots (50 μl) of inoculate were added to 50 μl of MH broth+0.02% BSA containing the peptide in serial two-fold dilutions. The following microorganisms were used to determine antibiotic selectivity of the peptides: Escherichia coli (ATCC 25922), Pseudomonas aeruginosa (P. aeruginosa ATCC 27853, P8191900, P1021903, P1021913, IMP 1 Livermore 3140).
# [3] = tested on: Pseudomonas aeruginosa IMP 1 Livermore 3140; format: cell-based; settings: IMP 1 Livermore 3140
# Experimental: as §1
# [4] = tested on: Pseudomonas aeruginosa P1021903; format: cell-based; settings: P1021903
# Experimental: as §1
# [5] = tested on: Pseudomonas aeruginosa P8191900; format: cell-based; settings: P8191900
# Experimental: as §1
# P. aeruginosa ATCC 27853 = format: cell-based, Pseudomonas aeruginosa; settings: ATCC 27853
# Experimental: as §1
SMILES,Average MIC (P. aeruginosa) [mg/L],Cytotoxicity GI50 Hela cells (HELA cells (Acc57)) [µM],Hemolysis at 100 μg/ml [1] [%],MIC P. aeruginosa P1021913 [2] [mg/L],MIC P. aeruginosa IMP1 Livermore 3140 [3] [mg/L],MIC P. aeruginosa P1021903 [4] [mg/L],MIC P. aeruginosa P8191900 [5] [mg/L],MIC P. aeruginosa ATCC 27853 (P. aeruginosa ATCC 27853) [mg/L]
CC[C@H](C)[C@@H]1NC(=O)[C@H](Cc2c[nH]c3ccccc23)NC(=O)[C@H]([C@@H](C)O)NC(=O)[C@@H]2CCCN2C(=O)[C@H]2CCCN2C(=O)[C@H](CCN)NC(=O)[C@H](C(C)C)NC(=O)[C@H](CCN)NC(=O)[C@H](CCN)NC(=O)[C@H](Cc2c[nH]c3ccccc23)NC(=O)[C@H](CCN)NC(=O)[C@H](CCN)NC(=O)[C@H](CCCCN)NC(=O)[C@H](CCC(N)=O)NC1=O [Example 30] (cyclo(TWIQK[Dab][Dab]W[Dab][Dab]V[Dab][dP]P)),0.60,46,0.5,0.50,2.00,0.30,0.13,0.09
CCCC[C@@H]1NC(=O)[C@H](Cc2c[nH]c3ccccc23)NC(=O)[C@H]([C@@H](C)O)NC(=O)[C@@H]2CCCN2C(=O)[C@H]2CCCN2C(=O)[C@H](CCN)NC(=O)[C@H](C)NC(=O)[C@H](CCN)NC(=O)[C@H](CCN)NC(=O)[C@H](Cc2c[nH]c3ccccc23)NC(=O)[C@H](CCN)NC(=O)[C@H](CCN)NC(=O)[C@H](CCCCN)NC(=O)[C@H](CCN)NC1=O [Example 31] (cyclo(TW[Nle][Dab]K[Dab][Dab]W[Dab][Dab]A[Dab][dP]P)),0.20,50,0.5,0.16,0.24,0.40,0.16,0.03
C[C@@H]1NC(=O)[C@H](CCN)NC(=O)[C@H](CCN)NC(=O)[C@H](Cc2c[nH]c3ccccc23)NC(=O)[C@H](CCN)NC(=O)[C@H](CCN)NC(=O)[C@H](CCCCN)NC(=O)[C@H](CCN)NC(=O)[C@H](C2CCCCC2)NC(=O)[C@H](Cc2c[nH]c3ccccc23)NC(=O)[C@H]([C@@H](C)O)NC(=O)[C@@H]2CCCN2C(=O)[C@H]2CCCN2C(=O)[C@H](CCN)NC1=O [Example 33] (cyclo(TW[Chg][Dab]K[Dab][Dab]W[Dab][Dab]A[Dab][dP]P)),0.25,50,0.1,0.31,0.43,0.29,0.18,0.05
C[C@@H]1NC(=O)[C@H](CCN)NC(=O)[C@H](CCN)NC(=O)[C@H](Cc2c[nH]c3ccccc23)NC(=O)[C@H](CCN)NC(=O)[C@H](CCN)NC(=O)[C@H](CCCCN)NC(=O)[C@H](CCN)NC(=O)[C@H](CC2CCCCC2)NC(=O)[C@H](Cc2c[nH]c3ccccc23)NC(=O)[C@H]([C@@H](C)O)NC(=O)[C@@H]2CCCN2C(=O)[C@H]2CCCN2C(=O)[C@H](CCN)NC1=O [Example 34] (cyclo(TW[Cha][Dab]K[Dab][Dab]W[Dab][Dab]A[Dab][dP]P)),0.33,50,0,0.48,0.60,0.29,0.24,0.05
